Laboratory results reported in ChEMBL document CHEMBL4371021, “BH3 mimetics derived from Bim-BH3 domain core region show PTP1B inhibitory activity” (Bioorg Med Chem Lett, 2019).

What was measured:
[1] = biological target: T1, Tyrosine-protein phosphatase non-receptor type 1 (Homo sapiens) (UniProt P18031); assay: (§1) Inhibition of recombinant human N-terminal poly histidine-tagged PTP1B (Glu2 to Asn321 residues) expressed in Escherichia coli at 40 umol/L using pNPP as substrate measured for 4 mins relative to control
T1 sequence (whole entry): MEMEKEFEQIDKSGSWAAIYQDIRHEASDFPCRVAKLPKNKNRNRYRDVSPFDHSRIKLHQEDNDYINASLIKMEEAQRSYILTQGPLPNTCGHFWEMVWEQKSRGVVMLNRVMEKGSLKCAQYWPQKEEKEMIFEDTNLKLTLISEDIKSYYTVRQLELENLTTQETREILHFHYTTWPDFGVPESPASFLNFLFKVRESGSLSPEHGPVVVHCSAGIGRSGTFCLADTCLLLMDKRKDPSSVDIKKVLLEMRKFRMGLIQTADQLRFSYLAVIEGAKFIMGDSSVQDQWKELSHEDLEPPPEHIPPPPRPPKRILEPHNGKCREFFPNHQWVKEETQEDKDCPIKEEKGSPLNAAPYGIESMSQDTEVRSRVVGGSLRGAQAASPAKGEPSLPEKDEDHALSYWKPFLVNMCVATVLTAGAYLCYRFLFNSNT

[2] = biological target: T1, Tyrosine-protein phosphatase non-receptor type 1 (Homo sapiens); assay: Binding affinity to recombinant human N-terminal poly histidine-tagged PTP1B (Glu2 to Asn321 residues) expressed in Escherichia coli assessed as association rate constant by surface plasmon resonance analysis
[3] = biological target: T1, Tyrosine-protein phosphatase non-receptor type 1 (Homo sapiens); assay: Binding affinity to recombinant human N-terminal poly histidine-tagged PTP1B (Glu2 to Asn321 residues) expressed in Escherichia coli assessed as dissociation rate constant by surface plasmon resonance analysis
[4] = biological target: T2, Tyrosine-protein phosphatase non-receptor type 1 (Homo sapiens, UniProt P18031); assay: Binding affinity to recombinant human N-terminal poly histidine-tagged PTP1B (Glu2 to Asn321 residues) expressed in Escherichia coli by surface plasmon resonance analysis
T2 sequence (P18031 whole entry): T1 sequence (whole entry)

[5] = biological target: Tyrosine-protein phosphatase non-receptor type 1 (Homo sapiens) (UniProt P18031); assay: as §1; remark: listed apart in the source

Row | Substance | inhibition [1] [%] | Ka [2] | Kdiss [3] | Kd [4] [nM] | inhibition [5] [%]
1 | Ac-IAQELRRIGDEFNA-NH2 | 3.31 |  |  |  | 
2 | Ac-IWIAQELRRIGDEF-NH2 | 5 | 9880 M⁻¹ s⁻¹ | 1.26 ×10⁻³ /s | 128 | 
3 | Ac-IWIAQELRRIGDEFNA-NH2 | 2.32 | 2.37 ×10⁴ /Ms | 6.38 ×10⁻⁴ /s | 26.9 | 
4 | Ac-WIAQELRRIGDEFN-NH2 | 9.43 |  |  |  | 
5 | SODIUM ORTHOVANAD |  |  |  |  | 75.4
